Values of other authors in PubChem BioAssay AID1259409 (Chemical Carcinogenesis Research Information System (CCRIS), 2018).

System: rodent chemically induced tumor inhibition, incidence and multiplicity
Assay: CCRIS tumor inhibitor studies

## C#C[C@]1(O)CC[C@H]2[C@@H]3CCc4cc(O)ccc4[C@H]3CC[C@@]21C
Carcinogen: N-METHYL-N-NITROSOUREA, 684-93-5, Dose [Inhibitor]: 0, 0.001% IN DIET BEGINNING POST CARCINOGEN TREATMENT AND CONTINUING FOR 23 WK (STUDY DURATION: 25 WK), Route [Inhibitor]: ORAL, Species: RAT, Strain/Sex: F344/MALE, Target Tissue: Type of Lesion: FORESTOMACH: PAPILLOMA, Dose [Carcinogen]: 50 MG/KG 4/2 WK, Promoter: NONE USED
  tumour outcome (control, treated, inhibition, significance): 8/17 (47%), 4/20 (20%), 57%, not calculated
Carcinogen: N-METHYL-N-NITROSOUREA, 684-93-5, Dose [Inhibitor]: 0, 0.001% IN DIET BEGINNING POST CARCINOGEN TREATMENT AND CONTINUING FOR 23 WK (STUDY DURATION: 25 WK), Route [Inhibitor]: ORAL, Species: RAT, Strain/Sex: F344/MALE, Target Tissue: Type of Lesion: FORESTOMACH: SQUAMOUS CELL CARCINOMA, Dose [Carcinogen]: 50 MG/KG 4/2 WK, Promoter: NONE USED
  tumour outcome (control, treated, inhibition, significance): 2/17 (12%), 2/20 (10%), 17%, not calculated
Carcinogen: N-METHYL-N-NITROSOUREA, 684-93-5, Dose [Inhibitor]: 0, 0.001% IN DIET BEGINNING POST CARCINOGEN TREATMENT AND CONTINUING FOR 23 WK (STUDY DURATION: 25 WK), Route [Inhibitor]: ORAL, Species: RAT, Strain/Sex: F344/MALE, Target Tissue: Type of Lesion: HEMATOPOIETIC SYSTEM: LYMPHOMA OR LEUKEMIA, Dose [Carcinogen]: 50 MG/KG 4/2 WK, Promoter: NONE USED
  tumour outcome (control, treated, inhibition, significance): 3/17 (18%), 0/20 (0%), 100%, not calculated
Carcinogen: N-METHYL-N-NITROSOUREA, 684-93-5, Dose [Inhibitor]: 0, 0.001% IN DIET BEGINNING POST CARCINOGEN TREATMENT AND CONTINUING FOR 23 WK (STUDY DURATION: 25 WK), Route [Inhibitor]: ORAL, Species: RAT, Strain/Sex: F344/MALE, Target Tissue: Type of Lesion: SMALL INTESTINE: ADENOCARCINOMA, Dose [Carcinogen]: 50 MG/KG 4/2 WK, Promoter: NONE USED
  tumour outcome (control, treated, inhibition, significance): 9/17 (53%), 0/20 (0%), 100%, not calculated
Carcinogen: N-METHYL-N-NITROSOUREA, 684-93-5, Dose [Inhibitor]: 0, 0.001% IN DIET BEGINNING POST CARCINOGEN TREATMENT AND CONTINUING FOR 23 WK (STUDY DURATION: 25 WK), Route [Inhibitor]: ORAL, Species: RAT, Strain/Sex: F344/MALE, Target Tissue: Type of Lesion: SMALL INTESTINE: ADENOMA, Dose [Carcinogen]: 50 MG/KG 4/2 WK, Promoter: NONE USED
  tumour outcome (control, treated, inhibition, significance): 10/17 (59%), 7/20 (35%), 41%, not calculated
Carcinogen: N-METHYL-N-NITROSOUREA, 684-93-5, Dose [Inhibitor]: 0, 0.001% IN DIET BEGINNING POST CARCINOGEN TREATMENT AND CONTINUING FOR 23 WK (STUDY DURATION: 25 WK), Route [Inhibitor]: ORAL, Species: RAT, Strain/Sex: F344/MALE, Target Tissue: Type of Lesion: THYROID: ADENOCARCINOMA, Dose [Carcinogen]: 50 MG/KG 4/2 WK, Promoter: NONE USED
  tumour outcome (control, treated, inhibition, significance): 1/17 (6%), 0/20 (0%), 100%, not calculated
Carcinogen: N-METHYL-N-NITROSOUREA, 684-93-5, Dose [Inhibitor]: 0, 0.001% IN DIET BEGINNING POST CARCINOGEN TREATMENT AND CONTINUING FOR 23 WK (STUDY DURATION: 25 WK), Route [Inhibitor]: ORAL, Species: RAT, Strain/Sex: F344/MALE, Target Tissue: Type of Lesion: THYROID: ADENOMA, Dose [Carcinogen]: 50 MG/KG 4/2 WK, Promoter: NONE USED
  tumour outcome (control, treated, inhibition, significance): 3/17 (18%), 0/20 (0%), 100%, not calculated
Carcinogen: N-METHYL-N-NITROSOUREA, 684-93-5, Dose [Inhibitor]: 0, 0.001% IN DIET BEGINNING POST CARCINOGEN TREATMENT AND CONTINUING FOR 23 WK (STUDY DURATION: 25 WK), Route [Inhibitor]: ORAL, Species: RAT, Strain/Sex: F344/MALE, Target Tissue: Type of Lesion: TONGUE: PAPILLOMA, Dose [Carcinogen]: 50 MG/KG 4/2 WK, Promoter: NONE USED
  tumour outcome (control, treated, inhibition, significance): 2/17 (12%), 2/20 (10%), 16%, not calculated
Carcinogen: N-METHYL-N-NITROSOUREA, 684-93-5, Dose [Inhibitor]: 0, 0.001% IN DIET BEGINNING POST CARCINOGEN TREATMENT AND CONTINUING FOR 23 WK (STUDY DURATION: 25 WK), Route [Inhibitor]: ORAL, Species: RAT, Strain/Sex: F344/MALE, Target Tissue: Type of Lesion: TONGUE: SQUAMOUS CELL CARCINOMA, Dose [Carcinogen]: 50 MG/KG 4/2 WK, Promoter: NONE USED
  tumour outcome (control, treated, inhibition, significance): 2/17 (12%), 0/20 (0%), 100%, not calculated
Carcinogen: N-METHYL-N-NITROSOUREA, 684-93-5, Dose [Inhibitor]: 0, 0.001% IN DIET BEGINNING POST CARCINOGEN TREATMENT AND CONTINUING FOR 23 WK (STUDY DURATION: 25 WK), Route [Inhibitor]: ORAL, Species: RAT, Strain/Sex: F344/MALE, Target Tissue: Type of Lesion: URINARY BLADDER: PAPILLOMA, Dose [Carcinogen]: 50 MG/KG 4/2 WK, Promoter: NONE USED
  tumour outcome (control, treated, inhibition, significance): 2/17 (18%), 0/20 (0%), 100%, not calculated

## C/C(=C\c1ccc2c(c1)C(C)(C)CCC2(C)C)c1ccc(C(=O)O)cc1
Carcinogen: 7,12-DIMETHYLBENZ[A]ANTHRACENE, 57-97-6, Dose [Inhibitor]: 0.17 NMOL IN 0.2 ML ACETONE 1 HR PRIOR TO EACH PROMOTER DOSE FOR 12 WK (STUDY DURATION: 14 WK), Route [Inhibitor]: DERMAL, Species: MOUSE, Strain/Sex: SENCAR/FEMALE, Target Tissue: Type of Lesion: SKIN: PAPILLOMA, Dose [Carcinogen]: 200 NMOL IN 0.2 ML ACETONE ONCE, Promoter: 12-O-TETRADECANOYLPHORBOL-13-ACETATE, 16561-29-8
  tumour outcome (control, treated, inhibition, significance): 100%, 93%, 7%, not calculated
Carcinogen: 7,12-DIMETHYLBENZ[A]ANTHRACENE, 57-97-6, Dose [Inhibitor]: 0.17 NMOL IN 0.2 ML ACETONE 1 HR PRIOR TO EACH PROMOTER DOSE FOR 20 WK (STUDY DURATION: 22 WK), Route [Inhibitor]: DERMAL, Species: MOUSE, Strain/Sex: CD-1/FEMALE, Target Tissue: Type of Lesion: SKIN: PAPILLOMA, Dose [Carcinogen]: 200 NMOL IN 0.2 ML ACETONE ONCE, Promoter: 12-O-TETRADECANOYLPHORBOL-13-ACETATE, 16561-29-8
  tumour outcome (control, treated, inhibition, significance): 94%, 87%, 8%, not calculated
Carcinogen: 7,12-DIMETHYLBENZ[A]ANTHRACENE, 57-97-6, Dose [Inhibitor]: 1.7 NMOL IN 0.2 ML ACETONE 1 HR PRIOR TO EACH PROMOTER DOSE FOR 12 WK (STUDY DURATION: 14 WK), Route [Inhibitor]: DERMAL, Species: MOUSE, Strain/Sex: SENCAR/FEMALE, Target Tissue: Type of Lesion: SKIN: PAPILLOMA, Dose [Carcinogen]: 200 NMOL IN 0.2 ML ACETONE ONCE, Promoter: 12-O-TETRADECANOYLPHORBOL-13-ACETATE, 16561-29-8
  tumour outcome (control, treated, inhibition, significance): 100%, 97%, 3%, not calculated
Carcinogen: 7,12-DIMETHYLBENZ[A]ANTHRACENE, 57-97-6, Dose [Inhibitor]: 1.7 NMOL IN 0.2 ML ACETONE 1 HR PRIOR TO EACH PROMOTER DOSE FOR 20 WK (STUDY DURATION: 22 WK), Route [Inhibitor]: DERMAL, Species: MOUSE, Strain/Sex: CD-1/FEMALE, Target Tissue: Type of Lesion: SKIN: PAPILLOMA, Dose [Carcinogen]: 200 NMOL IN 0.2 ML ACETONE ONCE, Promoter: 12-O-TETRADECANOYLPHORBOL-13-ACETATE, 16561-29-8
  tumour outcome (control, treated, inhibition, significance): 94%, 69%, 27%, not calculated
Carcinogen: 7,12-DIMETHYLBENZ[A]ANTHRACENE, 57-97-6, Dose [Inhibitor]: 17 NMOL IN 0.2 ML ACETONE 1 HR PRIOR TO EACH PROMOTER DOSE FOR 12 WK (STUDY DURATION: 14 WK), Route [Inhibitor]: DERMAL, Species: MOUSE, Strain/Sex: SENCAR/FEMALE, Target Tissue: Type of Lesion: SKIN: PAPILLOMA, Dose [Carcinogen]: 200 NMOL IN 0.2 ML ACETONE ONCE, Promoter: 12-O-TETRADECANOYLPHORBOL-13-ACETATE, 16561-29-8
  tumour outcome (control, treated, inhibition, significance): 100%, 3%, 97%, not calculated
Carcinogen: 7,12-DIMETHYLBENZ[A]ANTHRACENE, 57-97-6, Dose [Inhibitor]: 17 NMOL IN 0.2 ML ACETONE 1 HR PRIOR TO EACH PROMOTER DOSE FOR 20 WK (STUDY DURATION: 22 WK), Route [Inhibitor]: DERMAL, Species: MOUSE, Strain/Sex: CD-1/FEMALE, Target Tissue: Type of Lesion: SKIN: PAPILLOMA, Dose [Carcinogen]: 200 NMOL IN 0.2 ML ACETONE ONCE, Promoter: 12-O-TETRADECANOYLPHORBOL-13-ACETATE, 16561-29-8
  tumour outcome (control, treated, inhibition, significance): 94%, 0%, 100%, not calculated

## CC(C)[C@@H](C)/C=C/[C@@H](C)[C@H]1CC[C@H]2C3=CC=C4C[C@@H](O)CC[C@]4(C)[C@H]3CC[C@]12C
Carcinogen: 7,12-DIMETHYLBENZ[A]ANTHRACENE, 57-97-6, Dose [Inhibitor]: 0, 2 UMOL IN 100 µL ACETONE:DIMETHYLSULFOXIDE (9:1) 2/WK FOR 18 WK APPLIED 30 MIN PRIOR TO EACH PROMOTER DOSE (STUDY DUR, Route [Inhibitor]: DERMAL, Species: MOUSE, Strain/Sex: ICR/FEMALE, Target Tissue: Type of Lesion: SKIN: PAPILLOMA, Dose [Carcinogen]: 50 UG IN 100 µL ACETONE ONCE, Promoter: 12-O-TETRADECANOYLPHORBOL-13-ACETATE, 16561-29-8
  tumour outcome (control, treated, inhibition, significance): 100%, 40%, 60%, not calculated
